Assay results: patent US10590106B2, “Certain chemical entities, compositions, and methods” (NeuPharma, Inc., priority 2012, dated 2020)

Assays:
A549 cells = experiment: Inhibition of cancer cell growth, MTT or MTS assay, A549; assay type: cell-based; conditions: Homo sapiens, 72 h incubation
In short: (§1)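 Cells in RPMI 1640 with 10% FBS were seeded at ~2000 (A375) or 4000 (A549, Colo205) per well, grown 24 h, then exposed to compound 72 h at 1% final DMSO. Read-out by MTT (570 nm) or MTS (490 nm). IC50 from concentration vs percent inhibition, triplicates.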

A375 cells = experiment: Inhibition of cancer cell growth, MTT or MTS assay, A375; assay type: cell-based; conditions: Homo sapiens, A-375; 72 h incubation
In short: as §1

KDR (VEGFR2) = KDR (VEGFR2) (Homo sapiens (Human), UniProt P35968); experiment: Inhibitory activity against kinase KDR, Z'-LYTE method (Invitrogen); assay type: biochemical; conditions: for inhibition at 1 µM: 1 μM compound, read-out: Inhibition (% inhibition at 1 μM) against KDR
In short: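 Human KDR (VEGFR2) kinase inhibition was measured with Invitrogen's Z′-LYTE® method. A 2× mixture of KDR and Tyr 01 peptide is made in 50 mM HEPES pH 7.5, 0.01% BRIJ-35, 10 mM MgCl2, 1 mM EGTA. Each 10 μL reaction holds 0.5-11.7 ng enzyme and 2 μM Tyr 01. It incubates for 1 hour, then 5 μL of Development Reagent B diluted 1:256 is added.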

BRAF V600E = BRAF V600E (Homo sapiens (Human), UniProt P15056, V600E); experiment: Inhibitory activity against kinase BRAF V600E, Z'-LYTE method (Invitrogen); assay type: biochemical; conditions: for inhibition at 1 µM: 1 μM compound, read-out: Inhibition (% inhibition at 1 μM) against BRAF V600E
In short: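 FRET-based Z′-LYTE peptide-phosphorylation assay in 50 mM HEPES pH 7.5, 0.01% BRIJ-35, 10 mM MgCl2, 1 mM EGTA; kinase reaction 60 min at room temperature, then 60 min development before fluorescence read. IC50 from concentration vs % inhibition; single-point % inhibition tested at 1 μM.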

BRAF = BRAF (Homo sapiens (Human), UniProt P15056); experiment: Inhibitory activity against kinase BRAF, Z'-LYTE method (Invitrogen); assay type: biochemical; conditions: 1 μM compound
Procedure: Inhibitory activities Inhibitory activities of compounds against BRAF, and BRAF V600E were measured by Invitrogen using Z′-LYTE® Method as briefly described in the following. 4× Test compounds are dissolved in 1% DMSO. […] ATP solutions are diluted to a 4×ATP working concentration in Kinase Buffer (50 mM HEPES pH 7.5, 0.01% BRIJ-35, 10 mM MgCl2, 1 mM EGTA). Reaction started by 30-second shaking of mixture consisting of 2.5 μL 4× test compound, […] and 2.5 μL 4×ATP Solution on Bar-coded Corning, low volume NBS, black 384-well plate (Corning Cat. #3676). Then the mixture was incubated for 60-minute at room temperature for the kinase reaction, followed by addition of 5 μL of a 1:1024 dilution of development reagent A and 30-second plate shake. The mixture was then incubated for another 60-minute at room temperature for development reaction. Fluorescence was read by plate reader. IC50 was calculated by plotting the concentration of compound vs the percentage of inhibition in treated wells using GraphPad Prism 5.
Table 2 and 3 show % inhibition at 1 μM of several compounds of the invention against BRAF and BRAF V600E, respectively, using Z′-LYTE® method.

Sequence of BRAF V600E (P15056 whole entry V600E): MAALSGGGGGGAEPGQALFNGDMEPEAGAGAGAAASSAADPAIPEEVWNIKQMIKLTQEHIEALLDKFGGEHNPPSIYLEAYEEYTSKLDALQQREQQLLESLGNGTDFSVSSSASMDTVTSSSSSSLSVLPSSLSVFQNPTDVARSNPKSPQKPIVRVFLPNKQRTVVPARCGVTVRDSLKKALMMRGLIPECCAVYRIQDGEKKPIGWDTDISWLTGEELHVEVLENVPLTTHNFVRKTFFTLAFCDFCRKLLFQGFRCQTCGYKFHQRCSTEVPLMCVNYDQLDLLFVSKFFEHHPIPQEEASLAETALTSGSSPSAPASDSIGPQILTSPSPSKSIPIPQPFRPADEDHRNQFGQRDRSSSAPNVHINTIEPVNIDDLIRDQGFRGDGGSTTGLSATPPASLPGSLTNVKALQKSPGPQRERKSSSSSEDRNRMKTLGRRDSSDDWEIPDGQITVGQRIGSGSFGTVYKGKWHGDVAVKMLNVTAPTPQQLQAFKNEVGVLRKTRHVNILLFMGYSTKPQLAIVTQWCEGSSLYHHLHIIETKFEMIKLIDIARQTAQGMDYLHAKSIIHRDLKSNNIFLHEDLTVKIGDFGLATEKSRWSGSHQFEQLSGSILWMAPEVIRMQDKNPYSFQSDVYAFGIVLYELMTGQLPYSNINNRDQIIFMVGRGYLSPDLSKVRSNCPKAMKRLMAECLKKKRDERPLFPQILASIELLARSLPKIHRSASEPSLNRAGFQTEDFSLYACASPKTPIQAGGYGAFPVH
Sequence of BRAF (P15056 whole entry): as the sequence (P15056 whole entry V600E) above, with E600V counted along it
Sequence of KDR (VEGFR2) (P35968 20-1356): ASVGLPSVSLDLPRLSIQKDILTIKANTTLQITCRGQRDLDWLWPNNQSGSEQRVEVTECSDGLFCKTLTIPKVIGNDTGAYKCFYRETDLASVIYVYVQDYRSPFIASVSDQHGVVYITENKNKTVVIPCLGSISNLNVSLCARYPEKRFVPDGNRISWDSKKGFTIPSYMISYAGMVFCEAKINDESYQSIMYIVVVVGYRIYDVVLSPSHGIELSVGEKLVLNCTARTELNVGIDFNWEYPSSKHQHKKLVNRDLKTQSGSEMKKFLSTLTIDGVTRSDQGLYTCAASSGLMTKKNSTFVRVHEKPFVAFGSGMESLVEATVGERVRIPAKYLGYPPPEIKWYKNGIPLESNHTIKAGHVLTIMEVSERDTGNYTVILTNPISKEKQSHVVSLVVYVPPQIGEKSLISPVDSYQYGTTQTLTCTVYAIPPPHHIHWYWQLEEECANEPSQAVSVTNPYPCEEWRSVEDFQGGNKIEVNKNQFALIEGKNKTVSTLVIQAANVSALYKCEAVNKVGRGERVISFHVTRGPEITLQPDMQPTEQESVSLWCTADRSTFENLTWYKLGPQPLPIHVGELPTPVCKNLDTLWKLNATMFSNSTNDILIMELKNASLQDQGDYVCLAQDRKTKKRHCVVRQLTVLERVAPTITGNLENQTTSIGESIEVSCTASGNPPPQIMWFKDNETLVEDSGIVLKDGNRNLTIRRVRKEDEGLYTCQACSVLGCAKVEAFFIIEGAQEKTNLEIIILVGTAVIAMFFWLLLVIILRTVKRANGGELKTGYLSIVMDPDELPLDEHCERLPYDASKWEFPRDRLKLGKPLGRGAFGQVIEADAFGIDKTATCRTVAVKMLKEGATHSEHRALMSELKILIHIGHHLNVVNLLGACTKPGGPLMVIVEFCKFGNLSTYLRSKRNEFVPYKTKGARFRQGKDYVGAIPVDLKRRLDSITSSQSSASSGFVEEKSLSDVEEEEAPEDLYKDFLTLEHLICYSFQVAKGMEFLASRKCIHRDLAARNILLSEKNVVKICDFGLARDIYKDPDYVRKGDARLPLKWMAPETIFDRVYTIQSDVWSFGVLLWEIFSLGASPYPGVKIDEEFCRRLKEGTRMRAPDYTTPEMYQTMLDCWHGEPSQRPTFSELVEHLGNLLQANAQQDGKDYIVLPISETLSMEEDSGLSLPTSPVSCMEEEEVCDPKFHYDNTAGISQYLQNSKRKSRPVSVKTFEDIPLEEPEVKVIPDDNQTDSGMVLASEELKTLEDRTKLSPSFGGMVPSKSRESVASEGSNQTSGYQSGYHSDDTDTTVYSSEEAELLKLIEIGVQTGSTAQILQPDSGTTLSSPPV

| SMILES | IC50 (A549 cells) [µM] | IC50 (A375 cells) [µM] | IC50 (KDR (VEGFR2)) [µM] | inhibition at 1 µM (KDR (VEGFR2)) [%] | IC50 (BRAF V600E) [µM] | inhibition at 1 µM (BRAF V600E) [%] | inhibition at 1 µM (BRAF) [%] |
| --- | --- | --- | --- | --- | --- | --- | --- |
| O=C(Nc1cccc(Oc2ccc3nccnc3c2)c1)c1cccc(C(F)(F)F)c1 [Compound C005, N-(3-(quinoxalin-6-yloxy)phenyl)-3-(trifluoromethyl)benzamide] | > 5 | > 5 | > 0.1 | 70 to 89 | < 0.1 | 70 to 89 | 70 to 89 |
| O=C(Nc1cc(F)cc(Oc2ccc3nccnc3c2)c1)Nc1cccc(C(F)(F)F)c1 [Compound C021, 1-(3-fluoro-5-(quinoxalin-6-yloxy)phenyl)-3-(3-(trifluoromethyl)phenyl)urea] | < 2 | 1 to 5 | – | 70 to 89 | – | > 89 | < 70 |
| O=C(Nc1cc(F)cc(Oc2ccc3ncc(N4CCOCC4)nc3c2)c1)c1cccc(C(F)(F)F)c1 [Compound C028, N-(3-fluoro-5-((3-morpholinoquinoxalin-6-yl)oxy)phenyl)-3-(trifluoromethyl)benzamide] | > 5 | 1 to 5 | – | 70 to 89 | – | > 89 | < 70 |
| O=C(Nc1cccc(F)c1)Nc1ccc(F)c(Oc2ccc3ncc(N4CCOCC4)nc3c2)c1 [Compound C034, 1-(4-fluoro-3-((3-morpholinoquinoxalin-6-yl)oxy)phenyl)-3-(3-fluorophenyl)urea] | > 5 | < 1 | – | < 70 | – | > 89 | < 70 |
| O=C(Nc1cccc(F)c1)Nc1cccc(Oc2ccc3nccnc3c2)c1 [Compound C002, 1-(3-fluorophenyl)-3-(3-(quinoxalin-6-yloxy)phenyl)urea] | – | > 5 | – | 70 to 89 | – | 70 to 89 | 70 to 89 |
| O=C(Nc1ccc(F)c(F)c1)Nc1ccc(F)c(Oc2ccc3ncc(N4CCNCC4)nc3c2)c1 [Compound C061, 1-(3,4-difluorophenyl)-3-(4-fluoro-3-((3-(piperazin-1-yl)quinoxalin-6-yl)oxy)phenyl)urea] | > 5 | – | – | 70 to 89 | – | > 89 | > 89 |
| O=C(Nc1cccc(Cl)c1)Nc1ccc(F)c(Oc2ccc3ncc(N4CCNCC4)nc3c2)c1 [Compound C063, 1-(3-chlorophenyl)-3-(4-fluoro-3-((3-(piperazin-1-yl)quinoxalin-6-yl)oxy)phenyl)urea] | 2 to 5 | – | – | > 89 | – | > 89 | > 89 |
| O=C(Nc1ccc(F)cc1)Nc1cccc(Oc2ccc3ncc(N4CCOCC4)nc3c2)c1 [Compound C043, 1-(4-fluorophenyl)-3-(3-((3-morpholinoquinoxalin-6-yl)oxy)phenyl)urea] | > 5 | – | – | > 89 | – | > 89 | 70 to 89 |
| O=C(Nc1cc(F)cc(F)c1)Nc1cccc(Oc2ccc3ncc(N4CCNCC4)nc3c2)c1 [Compound C039, 1-(3,5-difluorophenyl)-3-(3-((3-(piperazin-1-yl)quinoxalin-6-yl)oxy)phenyl)urea] | > 5 | – | – | 70 to 89 | – | > 89 | > 89 |
| O=C(Nc1ccc(F)c(F)c1)Nc1ccc(F)c(Oc2ccc3ncc(N4CCOCC4)nc3c2)c1 [Compound C052, 1-(3,4-difluorophenyl)-3-(4-fluoro-3-((3-morpholinoquinoxalin-6-yl)oxy)phenyl)urea] | – | 1 to 5 | – | 70 to 89 | – | > 89 | 70 to 89 |
| O=C(Nc1cccc(Oc2ccc3ncc(N4CCNCC4)nc3c2)c1)Nc1ccc(F)c(F)c1 [Compound C036, 1-(3,4-difluorophenyl)-3-(3-((3-(piperazin-1-yl)quinoxalin-6-yl)oxy)phenyl)urea] | > 5 | – | – | > 89 | – | > 89 | > 89 |
| O=C(Nc1ccc(F)cc1)Nc1ccc(F)c(Oc2ccc3ncc(N4CCNCC4)nc3c2)c1 [Compound C060, 1-(4-fluoro-3-((3-(piperazin-1-yl)quinoxalin-6-yl)oxy)phenyl)-3-(4-fluorophenyl)urea] | 2 to 5 | – | – | > 89 | – | > 89 | > 89 |
| O=C(Nc1cccc(Oc2ccc3ncc(N4CCOCC4)nc3c2)c1)Nc1ccc(Cl)c(C(F)(F)F)c1 [Compound C049, 1-(4-chloro-3-(trifluoromethyl)phenyl)-3-(3-((3-morpholinoquinoxalin-6-yl)oxy)phenyl)urea] | 2 to 5 | – | – | > 89 | – | 70 to 89 | 70 to 89 |

Other lines, results leading:

| IC50 (A549 cells) [µM] | IC50 (A375 cells) [µM] | IC50 (KDR (VEGFR2)) [µM] | inhibition at 1 µM (KDR (VEGFR2)) [%] | IC50 (BRAF V600E) [µM] | inhibition at 1 µM (BRAF V600E) [%] | inhibition at 1 µM (BRAF) [%] | SMILES |
| --- | --- | --- | --- | --- | --- | --- | --- |
| 2 to 5 | 1 to 5 | – | > 89 | – | > 89 | < 70 | O=C(Nc1ccc(Oc2ccc3ncc(N4CCNCC4)nc3c2)cc1)Nc1ccc(C(F)(F)F)cc1 [Compound C088, 1-(4-((3-(piperazin-1-yl)quinoxalin-6-yl)oxy)phenyl)-3-(4-(trifluoromethyl)phenyl)urea] |
| – | > 5 | – | – | – | > 89 | 70 to 89 | O=C(Nc1ccc(F)cc1)Nc1ccc(Oc2ccc3nccnc3c2)cc1F [Compound C094, 1-(2-fluoro-4-(quinoxalin-6-yloxy)phenyl)-3-(4-fluorophenyl)urea] |
| 2 to 5 | 1 to 5 | – | > 89 | – | > 89 | > 89 | O=C(Nc1ccc(Oc2ccc3ncc(N4CCNCC4)nc3c2)cc1)Nc1cccc(Cl)c1 [Compound C091, 1-(3-chlorophenyl)-3-(4-((3-(piperazin-1-yl)quinoxalin-6-yl)oxy)phenyl)urea] |
| 2 to 5 | > 5 | – | 70 to 89 | – | > 89 | > 89 | O=C(Nc1ccc(Cl)cc1)Nc1ccc(Oc2ccc3ncc(N4CCNCC4)nc3c2)cc1 [Compound C092, 1-(4-chlorophenyl)-3-(4-((3-(piperazin-1-yl)quinoxalin-6-yl)oxy)phenyl)urea] |
| > 5 | > 5 | – | > 89 | – | > 89 | > 89 | N#Cc1ccc(NC(=O)Nc2cccc(Oc3ccc4nccnc4c3)c2)cc1 [Compound C070, 1-(4-cyanophenyl)-3-(3-(quinoxalin-6-yloxy)phenyl)urea] |
| – | > 5 | – | – | – | > 89 | < 70 | O=C(Nc1ccc(Cl)cc1)Nc1ccc(Oc2ccc3nccnc3c2)cc1F [Compound C096, 1-(4-chlorophenyl)-3-(2-fluoro-4-(quinoxalin-6-yloxy)phenyl)urea] |
| 2 to 5 | 1 to 5 | – | – | – | 70 to 89 | < 70 | O=C(Nc1ccc(Oc2ccc3nccnc3c2)cc1)Nc1cccc(F)c1 [Compound C074, 1-(3-fluorophenyl)-3-(4-(quinoxalin-6-yloxy)phenyl)urea] |
| < 2 | – | – | 70 to 89 | – | > 89 | > 89 | O=C(Nc1ccc(Cl)c(F)c1)Nc1ccc(F)c(Oc2ccc3ncc(N4CCNCC4)nc3c2)c1 [Compound C068, 1-(4-chloro-3-fluorophenyl)-3-(4-fluoro-3-((3-(piperazin-1-yl)quinoxalin-6-yl)oxy)phenyl)urea] |
| < 2 | – | – | > 89 | – | > 89 | > 89 | O=C(Nc1ccc(F)c(Cl)c1)Nc1ccc(F)c(Oc2ccc3ncc(N4CCNCC4)nc3c2)c1 [Compound C067, 1-(3-chloro-4-fluorophenyl)-3-(4-fluoro-3-((3-(piperazin-1-yl)quinoxalin-6-yl)oxy)phenyl)urea] |
| 2 to 5 | – | – | > 89 | – | > 89 | > 89 | O=C(Nc1ccc(Cl)cc1)Nc1ccc(F)c(Oc2ccc3ncc(N4CCNCC4)nc3c2)c1 [Compound C064, 1-(4-chlorophenyl)-3-(4-fluoro-3-((3-(piperazin-1-yl)quinoxalin-6-yl)oxy)phenyl)urea] |
